Reference: ChEMBL document CHEMBL1201862, “PubChem BioAssay data set” (2004)
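Protocol summary: plate cells (96-well), add compound at 5 concentrations, incubate 48 h, interpolate endpoints linearly. The concentration for 50% growth inhibition is given as GI50.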 Activity calls are given as the source filed them. Cut-off read from the data, not from the text of the source: active = GI50 up to about 1.1 µM and inactive = higher.

Assays:
Assay in all cases: NCI-60 cell line screen, 48 h
[1] = system: M14
[2] = system: OVCAR-5
[3] = system: HCT-15
[4] = system: HOP-92
[5] = system: SK-MEL-5
[6] = system: UACC-257
[7] = system: HCC 2998
[8] = system: TK-10
[9] = system: MDA-N
[10] = system: CAKI-1
[11] = system: SF-268
[12] = system: NCI-H522
[13] = system: SK-OV-3
[14] = system: KM12
[15] = system: RPMI-8226
[16] = system: NCI-H226
[17] = system: T47D
[18] = system: MOLT-4
[19] = system: IGROV-1
[20] = system: CCRF-CEM

Structure (SMILES) | GI50 [1] | GI50 [2] | GI50 [3] [µM] | GI50 [4] | GI50 [5] | GI50 [6] | GI50 [7] | GI50 [8] | GI50 [9] | GI50 [10] | GI50 [11] | GI50 [12] | GI50 [13] | GI50 [14] | GI50 [15] | GI50 [16] | GI50 [17] | GI50 [18] | GI50 [19] | GI50 [20]
CS(=N)(=O)CCC(N)P(=O)(O)O (centres undefined) | > 100 µM (inactive) | > 100 µM (inactive) | > 100 | > 100 µM (inactive) | > 100 µM (inactive) | > 100 µM (inactive) | > 100 µM (inactive) | > 100 µM (inactive) | > 100 µM (inactive) | > 100 µM (inactive) | > 100 µM (inactive) | > 100 µM (inactive) | > 100 µM (inactive) | > 100 µM (inactive) | > 100 µM (inactive) | > 100 µM (inactive) | > 100 µM (inactive) | > 100 µM (inactive) | > 100 µM (inactive) | 
c1ccc2c(c1)nnn2C1CCCCO1 (centres undefined) | > 100 µM (inactive) | > 100 µM (inactive) | > 100 | > 100 µM (inactive) | > 100 µM (inactive) | > 100 µM (inactive) | > 100 µM (inactive) | > 100 µM (inactive) | > 100 µM (inactive) | > 100 µM (inactive) | > 100 µM (inactive) | > 100 µM (inactive) | > 100 µM (inactive) | > 100 µM (inactive) | > 100 µM (inactive) | > 100 µM (inactive) | > 100 µM (inactive) | > 100 µM (inactive) | > 100 µM (inactive) | > 100 µM (inactive)
CC1C(=NO)C(C)C(c2ccccc2)N(N=O)C1c1ccccc1 (centres undefined) | 16 µM (inactive) |  | 16.6 | 19.7 µM (inactive) | 18.9 µM (inactive) | 23.4 µM (inactive) | 18.4 µM (inactive) | 24.1 µM (inactive) | 20.1 µM (inactive) | > 10 µM (inactive) | 15 µM (inactive) | 14.7 µM (inactive) | 4.72 µM (inactive) | 16 µM (inactive) |  | 24.7 µM (inactive) | 18.7 µM (inactive) | 12.2 µM (inactive) | 19.6 µM (inactive) | 28.1 µM (inactive)
O=C(O)CCc1ccc2c(c1)CC1(Cc3ccccc3C1)C2 | > 100 µM (inactive) | > 100 µM (inactive) | > 100 | > 100 µM (inactive) | > 100 µM (inactive) | > 100 µM (inactive) | > 100 µM (inactive) | > 100 µM (inactive) | > 100 µM (inactive) |  |  | > 100 µM (inactive) | > 100 µM (inactive) | > 100 µM (inactive) | > 100 µM (inactive) | 79.8 µM (inactive) | > 100 µM (inactive) | > 100 µM (inactive) | > 100 µM (inactive) | 80 µM (inactive)
Clc1ccc(Cl)c(/N=N/c2cc3c4c(c2)CCCN4CCC3)c1 | > 10 µM (inactive) |  | > 10 | > 10 µM (inactive) | > 10 µM (inactive) | > 10 µM (inactive) | > 10 µM (inactive) | > 10 µM (inactive) | > 10 µM (inactive) | > 10 µM (inactive) | > 10 µM (inactive) | > 10 µM (inactive) | > 10 µM (inactive) | > 10 µM (inactive) | > 10 µM (inactive) | > 10 µM (inactive) | > 10 µM (inactive) | > 10 µM (inactive) | > 10 µM (inactive) | > 10 µM (inactive)
O=C(/C=C/c1ccc(O)c(O)c1)OCc1ccccc1 [BENZYL CAFFEATE] | 11.1 µM (inactive) | 29.5 µM (inactive) | 5.4 | 16.2 µM (inactive) | 9.73 µM (inactive) | 21.2 µM (inactive) | 36.6 µM (inactive) | 15.4 µM (inactive) | 4.4 µM (inactive) | 27 µM (inactive) | 10.9 µM (inactive) | 0.809 µM (active) | 18.3 µM (inactive) | 8.45 µM (inactive) | 10.6 µM (inactive) | 31.3 µM (inactive) | 12.1 µM (inactive) | 2.28 µM (inactive) | 3.38 µM (inactive) | 
CCOc1cc2c(cc1OC(C)=O)C(=O)CC[C@H]1C3CC[C@H](OC(C)=O)[C@@]3(C)CC[C@H]21 (some centres undefined) | > 100 µM (inactive) | > 100 µM (inactive) | > 100 | > 100 µM (inactive) | > 100 µM (inactive) | > 100 µM (inactive) | > 100 µM (inactive) | > 100 µM (inactive) | > 100 µM (inactive) | > 100 µM (inactive) | > 100 µM (inactive) | > 100 µM (inactive) | > 100 µM (inactive) | > 100 µM (inactive) | > 100 µM (inactive) | > 100 µM (inactive) | > 100 µM (inactive) | > 100 µM (inactive) |  | > 100 µM (inactive)
CC(=O)Oc1ccc2c(c1)CC[C@@H]1C2[C@@H](O[N+](=O)[O-])C[C@@]2(C)C1CC[C@@H]2O[N+](=O)[O-] (some centres undefined) | 14 µM (inactive) | 19.4 µM (inactive) | 13.3 | 10.1 µM (inactive) | 9.75 µM (inactive) | 11.1 µM (inactive) | 1.63 µM (inactive) | 19.8 µM (inactive) | 14.3 µM (inactive) | 19.3 µM (inactive) | 13.3 µM (inactive) | 11.1 µM (inactive) |  | 14.1 µM (inactive) | 7.41 µM (inactive) |  | 6.97 µM (inactive) | 10.4 µM (inactive) | 15.1 µM (inactive) | 9.1 µM (inactive)
Sc1nn2c(COc3cccc(OCc4nnc5sc(S)nn45)c3)nnc2s1 | > 100 µM (inactive) | > 100 µM (inactive) | 52.8 | > 100 µM (inactive) |  | > 100 µM (inactive) | > 100 µM (inactive) | > 100 µM (inactive) | > 100 µM (inactive) | > 100 µM (inactive) | > 100 µM (inactive) | 64.6 µM (inactive) | > 100 µM (inactive) | > 100 µM (inactive) | 73.5 µM (inactive) | > 100 µM (inactive) | > 100 µM (inactive) | 2.09 µM (inactive) | > 100 µM (inactive) | 28.2 µM (inactive)
COc1ccc(N[C@H](C[S+]([O-])c2ccc(C)cc2)C(F)(F)F)cc1 (some centres undefined) | > 100 µM (inactive) | > 100 µM (inactive) | > 100 | > 100 µM (inactive) | > 100 µM (inactive) | > 100 µM (inactive) | > 100 µM (inactive) | > 100 µM (inactive) | > 100 µM (inactive) | > 100 µM (inactive) |  | > 100 µM (inactive) | > 100 µM (inactive) | > 100 µM (inactive) |  | > 100 µM (inactive) | > 100 µM (inactive) | > 100 µM (inactive) | > 100 µM (inactive) | > 100 µM (inactive)
COC(NC(=O)Nc1ccccc1C)(C(F)(F)F)C(F)(F)F | > 100 µM (inactive) | > 100 µM (inactive) |  | > 100 µM (inactive) | > 100 µM (inactive) |  | > 100 µM (inactive) | > 100 µM (inactive) | > 100 µM (inactive) |  | > 100 µM (inactive) | 30.4 µM (inactive) | > 100 µM (inactive) | > 100 µM (inactive) | > 100 µM (inactive) | > 100 µM (inactive) | 22.4 µM (inactive) | > 100 µM (inactive) | > 100 µM (inactive) | 40.7 µM (inactive)
